According to patent US20070093520A1, “Method of treatment of diarrhea-predominant irritable bowel syndrome in a subject” (priority 2005, published 2007):

System: diarrhea-predominant IBS subjects
Assay type: in vivo, human
Details: TEAE incidence, 2 mg, Safety Population
Experimental: The study was performed in approximately 150 study centers. Approximately 1600 eligible subjects were to be given cilansetron 2 mg TID. At Visit 1, pre-treatment assessments were conducted. […] Subjects were to return to the study site one month later for Visit 3 (Day 31) for their first interim assessment. […] All subjects who discontinued from the study were to have the same post-study assessments required at Visit 7 performed at their early termination visit. […]
Stool specimens were analyzed at every visit for occult blood. An independent GERB had been established to provide advice on GI AEs during the course of the study.
Adverse events were assessed at Baseline, at each clinic visit, and at the end of the study (Month 12 or the early termination visit). All AEs, which occurred during the study were followed up in accordance with good medical practice until resolved or judged no longer clinically significant, or if a condition was chronic, until fully characterized. Adverse events could occur in the specified follow-up period and, regardless of the interval since the last administration of the study medication, were treated in the same manner as an AE which occurred during the treatment with study medication. Each AE was evaluated for duration, severity, seriousness, and causal relationship to the investigational drug. The action taken and the outcome were also recorded.
Specifically, subjects who were lost to follow-up and had no post-Baseline contact with the site were excluded from the Safety population. The subjects who discontinued from the study due to lost to follow-up were identified based on the information collected on the study termination CRF page.
After the pretreatment assessment at Visit 1 (Days […] to −3), subjects were to return to the study site for a Baseline assessment and start the treatment at Visit 2 (Day 1).
For the by time-interval analyses of disposition, prevalence of AEs, and of markedly abnormal and predefined changes in laboratory values, vital signs, and ECGs, the following interval windows were used:
Adverse events that were already present prior to the first dose of cilansetron study medication but increased in severity afterwards were considered as treatment-emergent.
The 5% cutoff point was based on the incidence within higher level terms.
Subjects were counted at most once for each primary system organ class and preferred term. Serious AEs that resolved prior to receiving study medication or occurred more than 30 days after the last dose of study medication were not included in the incidence tables. A listing of all SAEs is presented; SAEs with onset prior to receiving study medication or more than 30 days after discontinuation of study medication were flagged. The listing presents lower level term and preferred term of the SAE, severity, action taken, outcome, and relationship of the SAE, start and stop date of the SAE, study day of onset of the SAE, age, race, and sex.

## Cc1nccn1C[C@H]1CCc2c(c3cccc4c3n2CCC4)C1=O [cilansetron, (R)-(−)-4,5,6,8,9,10-hexahydro-10-[(2-methyl-1H-imidazol-1-yl)methyl]-11H-pyrido-[3,2,1-jk]-carbazol-11-one]
HLT
  Limb Injuries NEC (Incl Traumatic Amputation): 4 (<1%) n (%)
  Lower Limb Fractures and Dislocations: 4 (<1%) n (%)
  Menopausal Effects NEC*: 2 (<1%) n (%)
  Menopausal Effects on the Genitourinary Tract*: 1 (<1%) n (%)
  Menstruation and Uterine Bleeding NEC*: 3 (<1%) n (%)
  Menstruation with Decreased Bleeding*: 4 (<1%) n (%)
  Menstruation with Increased Bleeding*: 2 (<1%) n (%)
  Mental Disorders NEC: 1 (<1%) n (%)
  Metabolic Bone Disorders: 4 (<1%) n (%)
  Mood Alterations with Depressive Symptoms: 1 (<1%) n (%)
  Muscle Pains: 12 (<1%) n (%)
  Muscle Related Signs and Symptoms NEC: 8 (<1%) n (%)
  Muscle, Tendon and Ligament Injuries: 14 (<1%) n (%)
  Myocardial Disorders NEC: 2 (<1%) n (%)
  Nasal Congestion and Inflammations: 10 (<1%) n (%)
  Nasal Disorders NEC: 5 (<1%) n (%)
  Non-Site Specific Injuries NEC: 10 (<1%) n (%)
  Non-Site Specific Procedural Complications: 5 (<1%) n (%)
  Oedema NEC: 1 (<1%) n (%)
  Osteoarthropathies: 4 (<1%) n (%)
  Ovarian and Fallopian Tube Cysts and Neoplasms*: 2 (<1%) n (%)
  Pain and Discomfort NEC: 20 (1%) n (%)
  Panic Disorders: 4 (<1%) n (%)
  Papulosquamous Conditions: 6 (<1%) n (%)
  Paranasal Sinus Disorders (Excl Infections and Neoplasms): 6 (<1%) n (%)
  Parasomnias: 2 (<1%) n (%)
  Pelvic Prolapse*: 2 (<1%) n (%)
  Photosensitivity Conditions: 1 (<1%) n (%)
  Potassium Imbalance: 4 (<1%) n (%)
  Prostatic signs, Symptoms and Disorders NEC*: 4 (<1%) n (%)
  Pruritus NEC: 14 (<1%) n (%)
  Purine Metabolism Disorders NEC: 1 (<1%) n (%)
  Rashes, Eruptions and Exanthems NEC: 13 (<1%) n (%)
  Rate and Rhythm Disorders NEC: 8 (<1%) n (%)
  Renal Lithiasis: 2 (<1%) n (%)
  Renal Neoplasms: 1 (<1%) n (%)
  Reproductive Tract Disorders NEC (Excl Neoplasms): 1 (<1%) n (%)
  Reproductive Tract Signs and Symptoms NEC: 2 (<1%) n (%)
  Respiratory Tract Disorders NEC: 1 (<1%) n (%)
  Rheumatoid Arthropathies: 2 (<1%) n (%)
  Rosaceas: 1 (<1%) n (%)
  Scalar Conditions: 1 (<1%) n (%)
  Sebaceous Gland Disorders: 1 (<1%) n (%)
  Sexual Desire Disorders: 2 (<1%) n (%)
  Site Specific Injuries NEC: 17 (1%) n (%)
  Skin Injuries and Mechanical Dermatoses: 3 (<1%) n (%)
  Skin Neoplasms Benign: 1 (<1%) n (%)
  Skin Preneoplastic Conditions NEC: 1 (<1%) n (%)
  Skin and Subcutaneous Tissue Ulcerations: 1 (<1%) n (%)
  Sleep Disorders NEC: 2 (<1%) n (%)
  Sodium Imbalance: 1 (<1%) n (%)
  Soft Tissue Disorders NEC: 6 (<1%) n (%)
  Spondyloarthropathies: 2 (<1%) n (%)
  Structural and Obstructive Urethral Disorders (Excl Congenital): 1 (<1%) n (%)
  Supraventricular Arrhythmias: 18 (1%) n (%)
  Tendon Disorders: 3 (<1%) n (%)
  Thermal Burns: 1 (<1%) n (%)
  Thoracic Cage Fractures and Dislocations: 2 (<1%) n (%)
  Total Fluid Volume Increased: 1 (<1%) n (%)
  Upper Limb Fractures and Dislocations: 7 (<1%) n (%)
  Upper Respiratory Tract Signs and Symptoms: 36 (2%) n (%)
  Urinary Abnormalities: 8 (<1%) n (%)
  Urinary Tract Lithiasis (Excl Renal): 2 (<1%) n (%)
  Urinary Tract Signs and Symptoms NEC: 8 (<1%) n (%)
  Urticarias: 4 (<1%) n (%)
  Ventricular Arrhythmias and Cardiac Arrest: 3 (<1%) n (%)
  Water Soluble Vitamin Deficiencies: 2 (<1%) n (%)
HLT (skin SOC)
  Connective Tissue Disorders: 1 (<1%) n (%)
PT
  Abrasion NOS: 1 (<1%) n (%)
  Acne Aggravated: 1 (<1%) n (%)
  Acne NOS: 1 (<1%) n (%)
  Acute Myocardial Infarction: 2 (<1%) n (%)
  Affect Lability: 1 (<1%) n (%)
  Alopecia: 1 (<1%) n (%)
  Alopecia Areata: 1 (<1%) n (%)
  Amenorrhoea NOS*: 2 (<1%) n (%)
  Anal Injury: 1 (<1%) n (%)
  Angina Pectoris: 2 (<1%) n (%)
  Animal Bite: 2 (<1%) n (%)
  Ankle Fracture: 1 (<1%) n (%)
  Anorexia: 11 (<1%) n (%)
  Anxiety: 12 (<1%) n (%)
  Anxiety Aggravated: 1 (<1%) n (%)
  Anxiety Disorder: 1 (<1%) n (%)
  Appetite Decreased NOS: 2 (<1%) n (%)
  Appetite Increased NOS: 2 (<1%) n (%)
  Arthralgia: 29 (2%) n (%)
  Arthralgia Aggravated: 1 (<1%) n (%)
  Arthritis NOS: 1 (<1%) n (%)
  Arthropod Sting: 2 (<1%) n (%)
  Asthenia: 2 (<1%) n (%)
  Asthma Aggravated: 2 (<1%) n (%)
  Asthma NOS: 6 (<1%) n (%)
  Atrial Fibrillation: 2 (<1%) n (%)
  Atrial Fibrillation Aggravated: 1 (<1%) n (%)
  Atrial Flutter: 1 (<1%) n (%)
  Atrial Hypertrophy: 1 (<1%) n (%)
  Atrioventricular Block NOS: 1 (<1%) n (%)
  Axillary Pain: 1 (<1%) n (%)
  Back Injury NOS: 3 (<1%) n (%)
  Back Pain Aggravated: 2 (<1%) n (%)
  Benign Prostatic Hyperplasia*: 3 (<1%) n (%)
  Bloody Discharge: 1 (<1%) n (%)
  Bradycardia NOS: 2 (<1%) n (%)
  Breast Cyst*: 2 (<1%) n (%)
  Breast Engorgement*: 1 (<1%) n (%)
  Breast Pain*: 2 (<1%) n (%)
  Breast Tenderness*: 1 (<1%) n (%)
  Bundle Branch Block Right: 3 (<1%) n (%)
  Bursitis: 1 (<1%) n (%)
  Calculus Renal NOS: 2 (<1%) n (%)
  Calculus Ureteric: 2 (<1%) n (%)
  Catarrh: 2 (<1%) n (%)
